Patent publication US6797497B1, “Biological process for the production of ortho-aminophenols from nitroaromatic compounds using mutase” (The United States of America as represented by the …, priority 2001, dated 2004)

Molecular target: T1, nitrobenzene nitroreductase (Ectopseudomonas oleovorans, UniProt Q6DLR9)
T1 construct: The fractions containing nitrobenzene nitroreductase activity, which eluted in the linear gradient between 65 to 80 ml, were pooled; made in house; host or cells: Pseudomonas pseudoalcaligenes JS45, the native organism (not recombinant); Crude extract fractionated on Q-Sepharose Fast Flow
T1 sequence (Q6DLR9 2-227): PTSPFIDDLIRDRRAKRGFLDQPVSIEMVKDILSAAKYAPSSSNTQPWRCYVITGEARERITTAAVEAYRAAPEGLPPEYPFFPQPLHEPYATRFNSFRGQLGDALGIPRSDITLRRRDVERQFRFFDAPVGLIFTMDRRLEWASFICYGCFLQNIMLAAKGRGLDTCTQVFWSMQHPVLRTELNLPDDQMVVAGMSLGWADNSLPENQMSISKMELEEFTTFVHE
Assay: Nitrobenzene nitroreductase activity on nitroarene substrates (NADPH oxidation)
Assay type: biochemical, Pseudomonas pseudoalcaligenes strain JS45
Conditions: partially purified enzyme; compound as substrate
Procedure: The crude extract was loaded on a 100 ml Q-Sepharose Fast Flow column (Pharmacia, XK-26) previously equilibrated with 150 mM KCl in 20 mM phosphate buffer. Proteins were eluted with a step gradient that began with 100 ml buffer containing KCl (150 mM) and then a linear gradient of 150 to 300 mM KCl at a flow rate of 2.5 ml/min.
A high performance liquid chromatograph (HPLC) equipped with a diode array detector monitoring A210 (Hewlett-Packard, Model 1040M, Wilmington Del.) was used to identify and quantitate the nitroarenes, intermediates and corresponding aminophenols. […] For the whole cell transformation experiments, the nitroarenes and products were separated on an ABZ column (Supelco, Bellefonte, Pa.) using acetonitrile/water as solvent system. Capillary gas chromatography/mass spectral (GC/MS) analyses were performed splitless on a Hewlett-Packard GC (model 5890) equipped with a mass selective detector (model 5971) and a DB-5 column (J & W Scientific, Folsom, Calif., 30 m long×0.25 mm I.D.×1.0 μm film thickness). The aminophenol derivatized with BSTFA was analyzed by GC/MS using the temperature program beginning at 100° C. and increased 10° C./min to 280° C. The n-butylboronic acid derivative was analyzed using an initial temperature of 50° C. increasing 20° C./min to 340°C.

Row | Compound | rate of transformation by partially purified nitrobenzene nitroreductase [μmol/min/mg protein]
1 | O=[N+]([O-])c1ccc(Oc2ccccc2)cc1 [4-nitrobiphenyl ether] | 8.1
2 | O=[N+]([O-])c1ccccc1 [nitrobenzene] | 7.9
